This note sets out measurements from PubChem BioAssay AID330 (DTP/NCI, 2004).

SMILES strings stand for the structures. Values joined by “and” are separate entries in the source; they are usually repeats but may differ in a detail not shown here. Equal entries are not always repeated. Inconclusive results and toxic doses are left out.

This assay concerns P388 leukemia ip, CD2F1 mice, survival T/C. Description: NCI In Vivo Anticancer Drug Screen. Data for tumor model P388 Leukemia (intraperitoneal) in CD2F1 (CDF1) mice. The following applies: endpoint: median survival time, higher = longer survival. Summed up: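 Mice carrying the transplanted tumor received test compound or vehicle. Survival was recorded in each group, and the value is the treated-group measurement divided by that of the vehicle-treated control group.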

Where [1] appears, read: dose: 50.0 mg/kg/injection, schedule: Q01DX005 (ip), vehicle: saline with Tween-80.
Where [2] appears, read: dose: 100.0 mg/kg/injection, schedule: Q01DX005 (ip), vehicle: saline with Tween-80.
The mark [3] stands for this setting: dose: 100.0 mg/kg/injection, schedule: Q01DX001 (ip), vehicle: Klucel (hydroxypropylcellulose) (HPC).
[4] abbreviates: dose: 200.0 mg/kg/injection, schedule: Q01DX001 (ip), vehicle: Klucel (hydroxypropylcellulose) (HPC).

In the case of `COc1ccc2c(c1OC)CN1CCc3cc4c(cc3C1C2C)OCO4` (stereo unspecified), the T/C reads like this: (dose: 50.0 mg/kg/injection, schedule: Q04DX003 (ip), vehicle: distilled water + Tween-80) 91 % of control; (dose: 100.0 mg/kg/injection, schedule: Q04DX003 (ip), vehicle: distilled water + Tween-80) 96 % of control; (dose: 200.0 mg/kg/injection, schedule: Q04DX003 (ip), vehicle: distilled water + Tween-80) 91 % of control; (dose: 400.0 mg/kg/injection, schedule: Q04DX003 (ip), vehicle: distilled water + Tween-80) 89 % of control.

`CCCNC(=O)CCC(NS(=O)(=O)c1ccc(C)cc1)C(=O)O` (stereo unspecified): the T/C is, setting by setting: (dose: 50.0 mg/kg/injection, schedule: Q01DX005 (ip), vehicle: Klucel (hydroxypropylcellulose) (HPC)) 100 % of control; (dose: 100.0 mg/kg/injection, schedule: Q01DX005 (ip), vehicle: Klucel (hydroxypropylcellulose) (HPC)) 100 % of control; (dose: 200.0 mg/kg/injection, schedule: Q01DX005 (ip), vehicle: Klucel (hydroxypropylcellulose) (HPC)) 98 % of control.

Consider `Cc1ccc(NC(=S)SCc2ccc(Cl)cc2)cc1C`, for which the T/C is, setting by setting: (dose: 50.0 mg/kg/injection, schedule: Q01DX009 (ip), vehicle: suspension in saline) 101 % of control; (dose: 100.0 mg/kg/injection, schedule: Q01DX009 (ip), vehicle: suspension in saline) 107 % of control; (dose: 200.0 mg/kg/injection, schedule: Q01DX009 (ip), vehicle: suspension in saline) 97 % of control.

For the compound `O=C1CCCN1CC#CCN1CCCC1`, the T/C is, setting by setting: (dose: 0.79 mg/kg/injection, schedule: Q01DX001 (ip), vehicle: saline) 97 % of control; (dose: 0.79 mg/kg/injection, schedule: Q01DX005 (ip), vehicle: saline) 100 % of control; (dose: 1.56 mg/kg/injection, schedule: Q01DX001 (ip), vehicle: saline) 103 % of control; (dose: 1.56 mg/kg/injection, schedule: Q01DX005 (ip), vehicle: saline) 97 % of control; (dose: 3.12 mg/kg/injection, schedule: Q01DX001 (ip), vehicle: saline) 105 % of control; (dose: 3.12 mg/kg/injection, schedule: Q01DX005 (ip), vehicle: saline) 97 % of control.

Take `CCCCCCCC(C)c1cc(N)c(C)cc1[N+](=O)[O-]` (stereo unspecified): the T/C was 98 % of control (dose: 25.0 mg/kg/injection, schedule: Q04DX002 (ip), vehicle: Klucel (hydroxypropylcellulose) (HPC)) and 89 % of control (dose: 50.0 mg/kg/injection, schedule: Q04DX002 (ip), vehicle: Klucel (hydroxypropylcellulose) (HPC)).

Turning to `O=C1C=C(N2CC2)C(=O)C=C1N1CC1`, the T/C by setting is: (dose: 0.12 mg/kg/injection, schedule: Q01DX009 (ip), vehicle: saline) 157 % of control; (dose: 0.25 mg/kg/injection, schedule: Q01DX009 (ip), vehicle: saline) 150 % of control and 170 % of control and 196 % of control; (dose: 0.5 mg/kg/injection, schedule: Q01DX009 (ip), vehicle: saline) 153 % of control and 185 % of control and 206 % of control; (dose: 1.0 mg/kg/injection, schedule: Q01DX009 (ip), vehicle: saline) 95 % of control.

For the compound `Clc1ncnc2ccccc12`, the T/C by setting is: under setting [1], 105 % of control; under setting [2], 89 % of control.

On to `O=C1NC(CO)C(=O)N2CCCC12` (stereo unspecified), for which the T/C runs as follows: (dose: 12.5 mg/kg/injection, schedule: Q01DX009 (ip), vehicle: saline) 100 % of control; (dose: 25.0 mg/kg/injection, schedule: Q01DX009 (ip), vehicle: saline) 99 % of control; (dose: 50.0 mg/kg/injection, schedule: Q01DX009 (ip), vehicle: saline) 99 % of control.

On to `O=c1c2ccccc2sc2c(N(CCO)CCO)cc3c(c12)CCCC3`, for which the T/C was 103 % of control (dose: 25.0 mg/kg/injection, schedule: Q01DX005 (ip), vehicle: distilled water + Tween-80); 101 % of control (dose: 50.0 mg/kg/injection, schedule: Q01DX005 (ip), vehicle: distilled water + Tween-80); 100 % of control (dose: 100.0 mg/kg/injection, schedule: Q01DX005 (ip), vehicle: distilled water + Tween-80); 95 % of control (dose: 200.0 mg/kg/injection, schedule: Q01DX005 (ip), vehicle: distilled water + Tween-80).

Regarding `CCOC(=O)C1(c2cc(NS(=O)(=O)c3ccccc3)ccc2O)CCCCC1=O` (stereo unspecified), the T/C is 104 % of control (dose: 12.5 mg/kg/injection, schedule: Q01DX001 (ip), vehicle: saline with Tween-80); 104 % of control (dose: 25.0 mg/kg/injection, schedule: Q01DX001 (ip), vehicle: saline with Tween-80); 100 % of control (dose: 50.0 mg/kg/injection, schedule: Q01DX001 (ip), vehicle: saline with Tween-80).

As to `O=S(=O)(CCl)OCCF`, the T/C is 110 % of control (dose: 1.56 mg/kg/injection, schedule: Q01DX009 (ip), vehicle: saline with Tween-80); 102 % of control (dose: 3.12 mg/kg/injection, schedule: Q01DX009 (ip), vehicle: saline with Tween-80); 105 % of control and 117 % of control (dose: 6.25 mg/kg/injection, schedule: Q01DX009 (ip), vehicle: saline with Tween-80).

For `CCOC(=O)CCCCCCNC(=O)N1c2c(nc(N)[nH]c2=O)NCC1CNc1ccc(C(=O)NC(CCC(=O)O)C(=O)O)cc1` (stereo unspecified), the T/C by setting is: (dose: 50.0 mg/kg/injection, schedule: Q01DX001 (ip), vehicle: sodium bicarbonate) 106 % of control; (dose: 100.0 mg/kg/injection, schedule: Q01DX001 (ip), vehicle: sodium bicarbonate) 100 % of control; (dose: 200.0 mg/kg/injection, schedule: Q01DX001 (ip), vehicle: sodium bicarbonate) 100 % of control.

With `COc1cccc(Nc2ncnc3c2c(=O)n(C)c(=O)n3C)c1`, the T/C by setting is: (dose: 25.0 mg/kg/injection, schedule: Q01DX005 (ip), vehicle: saline with Tween-80) 91 % of control; under setting [1], 87 % of control; under setting [2], 87 % of control.

Take `CC1(C)N=C(N)N=C(N)N1c1ccc(CN)cc1`: the T/C is 110 % of control (dose: 60.0 mg/kg/injection, schedule: Q01DX005 (ip), vehicle: saline); 103 % of control (dose: 120.0 mg/kg/injection, schedule: Q01DX005 (ip), vehicle: saline); 106 % of control (dose: 240.0 mg/kg/injection, schedule: Q01DX005 (ip), vehicle: saline).

With `Cc1cc(=O)n2c(nc3cc(C(=O)c4ccccc4)ccc32)s1`, the T/C was 101 % of control (dose: 50.0 mg/kg/injection, schedule: Q01DX001 (ip), vehicle: Klucel (hydroxypropylcellulose) (HPC)); 98 % of control under setting [3]; 100 % of control under setting [4].

As to `Cc1nn(C(N)=S)c(C)c1N=Nc1ccc([N+](=O)[O-])cc1`, the T/C under setting [3] was 104 % of control; the T/C under setting [4] is 108 % of control; the T/C (dose: 400.0 mg/kg/injection, schedule: Q01DX001 (ip), vehicle: Klucel (hydroxypropylcellulose) (HPC)) was 113 % of control.

In the case of `CCC(C)/C(=C\C#N)NCCCCCCN/C(=C/C#N)C(C)CC` (stereo unspecified), the T/C runs as follows: (dose: 15.0 mg/kg/injection, schedule: Q01DX005 (ip), vehicle: Klucel (hydroxypropylcellulose) (HPC)) 95 % of control; (dose: 30.0 mg/kg/injection, schedule: Q01DX005 (ip), vehicle: Klucel (hydroxypropylcellulose) (HPC)) 86 % of control; (dose: 60.0 mg/kg/injection, schedule: Q01DX005 (ip), vehicle: Klucel (hydroxypropylcellulose) (HPC)) 90 % of control; (dose: 240.0 mg/kg/injection, schedule: Q01DX005 (ip), vehicle: Klucel (hydroxypropylcellulose) (HPC)) 91 % of control.

Turning to `CCOC1(OCC)Oc2c(c3ccccc3c3ccccc23)/C1=C1\c2c(c3ccccc3c3ccccc23)OC1(OCC)OCC`, the T/C under setting [1] was 94 % of control and the T/C under setting [2] was 92 % of control.

Turning to `CN1CCc2c(n(C)c3ccccc23)C1=O`, the T/C by setting is: (dose: 25.0 mg/kg/injection, schedule: Q04DX002 (ip), vehicle: saline with Tween-80) 102 % of control; (dose: 50.0 mg/kg/injection, schedule: Q04DX002 (ip), vehicle: saline with Tween-80) 98 % of control; (dose: 100.0 mg/kg/injection, schedule: Q04DX002 (ip), vehicle: saline with Tween-80) 106 % of control; (dose: 200.0 mg/kg/injection, schedule: Q04DX002 (ip), vehicle: saline with Tween-80) 101 % of control; (dose: 400.0 mg/kg/injection, schedule: Q04DX002 (ip), vehicle: saline with Tween-80) 99 % of control.

For `CN=C(N)N/N=C(\C)c1ccc2c(c1)-c1ccc(/C(C)=N/NC(N)=NC)c3cccc-2c13`, the T/C by setting is: (dose: 3.12 mg/kg/injection, schedule: Q04DX002 (ip), vehicle: saline with Tween-80) 104 % of control; (dose: 6.25 mg/kg/injection, schedule: Q04DX002 (ip), vehicle: saline with Tween-80) 99 % of control; (dose: 12.5 mg/kg/injection, schedule: Q04DX002 (ip), vehicle: saline with Tween-80) 100 % of control.
